Assay results reported in US4371544A, “Pharmaceutical composition containing 1,1,3,5-substituted biuret compound” (Taiho Pharmaceutical Company Limited, priority 1979, dated 1983).
Like-named read-outs stand apart in the source and are kept apart here.

Tests used:
[1] = tested on: ddy strain of male mice; assay: Analgesic activity, acetic acid-induced stretching method; assay type: in vivo, mouse (ddy); settings: for inhibition in vivo at 100 mg/kg: po
Description: (§1) Next, several tests for determining the pharmacological properties, in that acute toxicity, anti-pyretic activity, analgesic activity and anti-inflammatory activity of the present 1,1,3,5-substituted biuret compounds of the formula (1) were conducted and the test results are shown in Table (2). In the tests, each compounds to be tested was used as a suspension in 0.25% carboxymethylcellulose solution. Methods for testing are explained as follows:
According to the method reported by Koster et al., [Fed. Proc., Vol. 18, pp. 412 (1959)], the ddy strain of male mice (body weight, 20-25 g) were used as test animals. The mice were fasted overnight, 100 mg/kg body weight of the test compound was administered orally, then 1 hour after the administration, 0.2 ml of 0.7% acetic acid solution was injected intraperitoneally. The acetic acid-induced stretching symptom of mouse was observed. Analgesic activity of the test compound was calculated as the inhibitory ratio (%). In Table 2, the values in parentheses show the data obtained from the test by using the dosage other than 100 mg/kg body weight. Further, the values indicated with Δ marks show 50% effective dose, ED50 (mg/kg body weight).

[2] = tested on: ddy strain of male mice; assay: Analgesic activity, Haffner method (morphine threshold dose, clamp); assay type: in vivo, mouse (ddy)
Description: as §1
According to the modified method reported by Fujimura et. al., [Bulletin of the Institute for Chemical Research, Kyoto University, No. 25, pp. 36 (1951)], the ddy strain of male mice (body weight, 20-25 g) were used as test animals. The mice were fasted overnight, 100 mg/kg body weight of the test compound was administered orally, then 45 minutes after the administration, the threshold amount (1.5-2.5 mg/kg body weight) of morphine hydrochloride was injected subcutaneously. Then 1-hour pain reaction of the mouse caused by a clamp was observed. Analgesic activity of the test compound was calculated as the inhibitory ratio (%). In Table 2, the values in parentheses show the data obtained from the test by using the dosage other than 100 mg/kg body weight. Further, the values indicated with Δ marks show 50% effective dose, ED50 (mg/kg body weight).

[3] = tested on: Wistar strain of male rats; assay: Anti-pyretic activity (dry-yeast-induced fever); assay type: in vivo, rat (Wistar); settings: oral (dose not given), up to 4 hours after administration
Description: as §1
According to the method reported by Tanabe [Folia Pharmacologia Japonica, Vol. 73, pp. 803 (1977)], the Wistar strain of male rats (150-180 g, body weight) were used as test animals. The rats were fasted overnight, and 1 ml/100 g (body weight) of 10% dry-yeast suspension were subcutaneously injected on the back of the rats. Five hours after the injection, the test compound was administered orally, then the body temperature of the rat was measured at time sequences. Anti-pyretic activity of the test compound was determined as the FI (febril index) by integrating pyrogenetic curve up to 4 hours after the administration of the test compound with time, and indicated as inhibitory ratio (%) shown by the following formula, [formula]

[4] = tested on: Wistar strain of male rats; assay: Anti-inflammatory activity (acute carrageenin-induced inflammatory test, hindpaw); assay type: in vivo, rat (Wistar)
Description: as §1
According to the method of acute carrageenin-induced inflammatory test [Folia Pharmacologia Japonica, Vol. 56, pp. 575 (1960)], the Wistar strain of male rats (body weight, 150-180 g) were used as test animals. The rats were fasted overnight, 100 mg/kg body weight of the test compound was administered orally, then 1 hour after the administration, 0.1 ml of 1% carrageenin solution, as the inflammation inducing agent, was injected subcutaneously to the hindpaw of the rat and the volume of the hindpaw was measured at time sequences, Anti-inflammatory activity of the test compound was calculated as inflammation inhibitory ratio (%) at 3 hours after the injection of inflammation inducing agent.

[5] = tested on: ddy strain of male mice; assay: Acute toxicity (oral, mice, 7 days observation); assay type: in vivo
Description: as §1
The ddy strain of male mice (body weight, 20-25 g) were used as test animals. The mice were fasted overnight and the compound to be tested was administered orally. […] The lethal dose (mg/kg, body weight) of the test compound was determined in connection with the death number of mice/the number of mice tested. In Table 2, the values indicated with Δ marks are 50% lethal dose, LD50 (mg/kg, body weight).

[6] = 100 mg/kg oral, 1 hour before acetic acid
[7] = 100 mg/kg oral, 45 minutes before morphine hydrochloride
[8] = 100 mg/kg oral, 3 hours after carrageenin
[9] = Rattus norvegicus, po, 3 h, read-out: Anti-inflammatory activity, inflammation inhibitory ratio
[10] = Mus musculus, read-out: Analgesic activity, acetic acid-induced stretching method, inhibitory ratio
[11] = Mus musculus, 100 mg/kg oral, 45 minutes before morphine hydrochloride, read-out: Analgesic activity, Haffner method, inhibitory ratio

| Compound | Anti-pyretic activity, inhibitory ratio (febril index) [3] [%] | Acute toxicity: death number of mice/number of mice tested ([5]; 500 mg/kg oral) | Analgesic activity, Haffner method, inhibitory ratio [2, 7] [%] | inhibition in vivo at 100 mg/kg [1, 10] [%] | inhibition in vivo at 100 mg/kg [2, 11] [%] | also measured |
| --- | --- | --- | --- | --- | --- | --- |
| CN(C)C(=O)N(C)C(=O)Nc1cccc(Cl)c1 [compound 11, 1,1,3-Trimethyl-5-(3-chlorophenyl)biuret] | 43 |  |  |  |  | Analgesic activity, acetic acid-induced stretching method, inhibitory ratio [1, 6]: 62.5%; Analgesic activity, Haffner method, inhibitory ratio ([2]; 200 mg/kg oral): 75%; Anti-inflammatory activity, inflammation inhibitory ratio ([4]; 100 mg/kg oral, (2 hours)): 30% |
| CN(C)C(=O)N(C)C(=O)Nc1ccc([N+](=O)[O-])cc1 [compound 20, 1,1,3-Trimethyl-5-(4-nitrophenyl)biuret] | 26 | 2/4 | 50 |  |  | Anti-inflammatory activity, inflammation inhibitory ratio [4, 8]: 32% |
| COc1cc(NC(=O)N(C)C(=O)N(C)C)cc(OC)c1OC [compound 25, 1,1,3-Trimethyl-5-(3,4,5-trimethoxyphenyl)biuret] | 23 | 0/4 | 62.5 |  |  | Acute toxicity: death number of mice/number of mice tested ([5]; 1000 mg/kg oral): 2/4; Anti-inflammatory activity, inflammation inhibitory ratio [4, 8]: 30% |
| Cc1ccccc1NC(=O)N(C)C(=O)N(C)C [compound 26, 1,1,3-Trimethyl-5-(2-methylphenyl)biuret] | 41 |  | 50 |  |  | Analgesic activity, acetic acid-induced stretching method, inhibitory ratio [1, 6]: 37.5%; Anti-inflammatory activity, inflammation inhibitory ratio [4, 8]: 29% |
| CC(=O)c1ccc(NC(=O)N(C)C(=O)N(C)C)cc1 [compound 33, 1,1,3-Trimethyl-5-(4-acetylphenyl)biuret] | 36 | 0/4 | 37.5 |  |  | Acute toxicity: death number of mice/number of mice tested ([5]; 1000 mg/kg oral): 4/4; Anti-inflammatory activity, inflammation inhibitory ratio ([4]; 100 mg/kg oral, (2 hours)): 31% |
| CN(C)C(=O)N(C)C(=O)NC1CCCCC1 [compound 35, 1,1,3-Trimethyl-5-cyclohexylbiuret] |  |  | 25 |  |  | Analgesic activity, acetic acid-induced stretching method, inhibitory ratio ([1]; 200 mg/kg oral): 87.5%; inhibition in vivo at 100 mg/kg [4, 9]: 24% |
| CCCCN(C)C(=O)NC(=O)Nc1ccccc1 [compound 47, 1-Methyl-1-n-butyl-5-phenylbiuret] |  |  |  | 50 | 25 | Acute toxicity: death number of mice/number of mice tested ([5]; 2000 mg/kg oral): 0/4; inhibition in vivo at 100 mg/kg ([4]; Rattus norvegicus, 100 mg/kg oral, 3 hours after carrageenin, read-out: Anti-inflammatory activity, inflammation inhibitory ratio): 20% |
| CN(C(=O)Nc1ccccc1)C(=O)N1CC1 [compound 66, 1,1-Ethylene-3-methyl-5-phenylbiuret] | 28 | 4/4 |  | 62.5 | 25 | Acute toxicity: death number of mice/number of mice tested ([5]; 250 mg/kg oral): 2/4 |
| O=C(NC(=O)N1CCCC1)Nc1ccccc1 [compound 67, 1,1-Tetramethylene-5-phenylbiuret] |  |  |  | 50 | 37.5 | Acute toxicity: death number of mice/number of mice tested ([5]; 2000 mg/kg oral): 0/4; inhibition in vivo at 100 mg/kg [4, 9]: 33% |
| O=C(NC(=O)N1CCOCC1)Nc1ccccc1 [compound 71, 1,1-(3-Oxapentamethylene)-5-phenylbiuret] |  |  |  |  |  | Acute toxicity: death number of mice/number of mice tested ([5]; mouse, in vivo): 0/4; inhibition in vivo at 200 mg/kg ([1]; Mus musculus, 200 mg/kg oral, read-out: Analgesic activity, acetic acid-induced stretching method, inhibitory ratio): 40%; inhibition in vivo at 200 mg/kg ([2]; Mus musculus, 200 mg/kg oral, read-out: Analgesic activity, Haffner method, inhibitory ratio): 50%; inhibition in vivo at 200 mg/kg [4, 9]: 23% |
| CN(C(=O)Nc1ccccc1)C(=O)N1CCOCC1 [compound 73, 1,1-(3-Oxapentamethylene)-3-methyl-5-phenylbiuret] | 17 |  |  | 50 | 25 | Acute toxicity: death number of mice/number of mice tested ([5]; mouse, in vivo): 0/4 |
